Assay results as given in patent US10617734B2, “STAT3 and ERK signal pathway inhibitor comprising mogrosides and analogs thereof” (BEIJING UNIVERSITY OF AGRICULTURE, priority 2014, dated 2020).

Columns and labels:
[1] = system: leukemia cells K562; assay: Cell apoptosis, Annexin V-FITC/PI, flow cytometer; assay type: cell-based, human; conditions: leukemia cells K562, 10 μmol/L, 24 h
Experimental: (§1) Lymphoma U937 cells, human melanoma A875 cells and leukemia cells K562 in logarithmic growth phase were selected, and after the respective culture with 0 and 10 μmol/L of the mogrosides and analogs thereof (i.e. Mogroside I E1, Mogroside II A2 and mogrol) for 24 h, cells were collected and washed twice with 200 μl of cold PBS, and then the cells were collected again; 100 μl of binding buffer was added for re-suspending the cells, and after the addition of 2 μl of Annexin V-FITC and well mixing, the resulting mixture was placed in dark at room temperature for 10 min, and then 5 μl of propidium iodide (PI) was added and then well mixed; the mixture was placed in dark at room temperature for 10 min, and detected by flow cytometer, and the results are shown in FIGS. 13-15.

[2] = system: lymphoma U937 cells; assay: Cell apoptosis, Annexin V-FITC/PI, flow cytometer; assay type: cell-based; conditions: 10 μmol/L, 24 h
Experimental: as §1

[3] = system: anti-apoptotic protein Bcl-2; assay: Western Blotting of Bcl-2 in K562 cells; assay type: cell-based, human; conditions: leukemia cells K562, 10 μmol/L, 24 h
Experimental: The STAT3 and ERK signal pathways can regulate cyclins and apoptosis genes, and in order to verify the effects of […] and mogrol, the expression status of downstream genes of STAT3 and ERK was detected, wherein the influences of the three mogrosides and analogs thereof, i.e. Mogrol I E1, Mogrol II A2 and mogrol, on Bcl-2 and P21 proteins in the histiocytic lymphoma U937 cells, human melanoma A875 cells and leukemia cells K562 were determined, respectively.
The regulation of Bcl-2 and P21 proteins by mogrosides and analog thereof to the was detected by Western Blotting, specifically: histiocytic lymphoma U937 cells, human melanoma A875 cells and leukemia cells K562 (1×10^6 cells/well) were inoculated into a 6-well culture plate overnight, and 0 and 10 μmol/L of the mogrosides and analogs thereof were added respectively, and kept cultured for 24 h. […]
The protein concentration was measured with bovine serum albumin (BSA) as the standard. 50 μg of the total proteins were separated by polyacrylamide gel electrophoresis with 12% SDS, and electrophoretically transferred to a PVDF membrane (polyvinylidene fluoride membrane), and blocked for 1 h by 5% of skim milk (containing 0.1% of Tween 20), and then antibodies P21, Bcl-2 and β-actin were added, wherein the primary antibody was incubated at 4° C. overnight (β-actin was used as reference loading amount); the membrane was washed for 3 times with TBS-T, 5 min each time; secondary antibody marked by horseradish peroxidase (HRP) was added for incubation at room temperature for 1 h, the membrane was washed with rinse solution (TBS-T) for 3 times, 10 min each time, and then ECL was added for incubation in dark for 5 min, and subsequently, a fluorescence imaging analyzer was used for image development and scanning analysis.

**Q.** For `C[C@H](CC[C@@H](O)C(C)(C)O)[C@H]1CC[C@@]2(C)[C@@H]3CC=C4[C@@H](CC[C@H](O)C4(C)C)[C@]3(C)[C@H](O)C[C@]12C` [mogrol], which cell apoptosis [1] is on record?
**A.** Its cell apoptosis is “induce the apoptosis”.

**Q.** What about the cell apoptosis [2] of the same molecule?
**A.** Its cell apoptosis is “induce the apoptosis”.

**Q.** What about the “expression of anti-apoptotic protein Bcl-2” value [3] of the same molecule?
**A.** The value was “significantly down-regulated”.
